In patent US11607417B2, “Uses of celastrol in preventing and/or treating cholestatic liver disease and liver fibrosis” (KUNMING INSTITUTE OF BOTANY, THE CHINESE ACADEMY OF SCIENCES, priority 2017, dated 2023):

How the values were obtained:
[1] = system: ANIT-induced cholestatic liver injury under SIRT1 inhibition; assay: Effect of SIRT1 inhibition (EX527) on celastrol activity in ANIT model (Example 3); type: in vivo, C57BL/6 mice
Description: A total of 24 male C57BL/6 mice were divided into four groups: blank group (n=6); model group (n=6); treatment group (n=6); and EX527 group (n=6).
Celastrol was dissolved in a solvent to obtain a celastrol solution at a concentration of 2 mg/mL, wherein the solvent consisted of 1% DMSO, 2% Tween 80, and 97% water (v:v:v). For intragastrical administration, the dosage of celastrol was 10 mg/kg·d. ANIT was dissolved in corn oil to obtain a corn oil solution of ANIT at a concentration of 15 mg/mL, and the dosage of ANIT for intragastrical administration was 75 mg/kg. EX527 was dissolved in corn oil to obtain a corn oil solution of EX527 at a concentration of 2 mg/mL, and the dosage of EX527 for intraperitoneal injection was 10 mg/kg·d.
(§1) The EX527 group was simultaneously administrated with the celastrol solution and the EX527 corn oil solution for 5 consecutive days. The treatment group was administrated with the celastrol solution and an equal dosage of corn oil for 5 consecutive days. At the same time, the blank group and the model group were administrated with equal dosages of solvent (1% DMSO, 2% Tween 80 and 97% water (v:v:v)) and corn oil, and the solvent was administrated for 5 consecutive days.
On the 3rd day of administration, ANIT model was established. 4 Hours after administration, the mice in the model group, the treatment group and the EX527 group were respectively intraperitoneally injected with the ANIT corn oil solution at a dosage of 75 mg/kg for single administration to induce cholestatic liver injury, and the blank group was fed with an equal dosage of corn oil. After the model was established on the 3rd day of administration, the treatment group was continuously administrated with celastrol, the EX527 group was continuously administrated with celastrol and EX527, and the blank group and the model group were continuously administrated with the same dosage of solvent. 48 Hours after administration with ANIT, the mice were sacrificed by CO2 anesthesia, and mouse liver samples and plasma samples were taken. The eyeballs of the mice were taken for blood collection. The plasma samples were placed on ice for 1-2 hours, centrifuged at 4000 g for 5 minutes at 4° C., and the supernatants of the plasma samples were taken to determine plasma biochemical indicators, the levels of ALT, AST and ALP.
At the same time, plasma samples were prepared: 10 μL of plasma sample was taken, mixed well with 190 μL of 67% acetonitrile (containing 5 μM internal standard chlorpropamide), centrifuged at 18000 g for 20 minutes at 4° C., and the supernatant was taken for sample injection. The liquid chromatography conditions were as follows: the injection volume was 5 μL; the temperature of column was 45° C.; the flow rate of mobile phase was 0.3 mL/min; the gradient elution was that acetonitrile concentration changed from 2% to 98% during 16 minutes of operation, wherein the mobile phase (water/acetonitrile solution) contained 0.01% formic acid. The elution procedure was as follows: during 0-12th minute, the acetonitrile concentration changed from 2% to 98% at a constant rate; during 12-14th minute, the acetonitrile concentration was maintained at 98%; during 14-14.1th minute, the acetonitrile concentration changed from 98% to 2%; during 14.1-16th minute, the acetonitrile concentration was maintained at 2%. Mass spectrometry conditions were as follows: the temperature of dry gas was 350° C., the pressure of nebulizer was 35 psi, and the voltage of capillary was 3.5 kV.
Part of the collected mouse liver tissue was fixed overnight in formalin and tissue sections were stained with hematoxylin and eosin (H&E).

[2] = system: TAA-induced cholestatic liver injury under SIRT1 inhibition; assay: Effect of SIRT1 inhibition (EX527) on celastrol activity in TAA model (Example 4); type: in vivo, C57BL/6 mice
Description: A total of 24 male C57BL/6 mice were divided into four groups: blank group (n=6);
model group (n=6); treatment group (n=6); EX527 group (n=6).
Celastrol was dissolved in a solvent to obtain a solution of celastrol at a concentration of 2 mg/mL, wherein the solvent consisted of 1% DMSO, 2% Tween, and 97% water (v:v:v). For intragastrical administration, the dosage of celastrol was 10 mg/kg·d. TAA was dissolved in 0.9% NaCl solution to prepare a NaCl solution of TAA at a concentration of 60 mg/mL, and the dosage of TAA for intraperitoneal administration was 300 mg/kg. EX527 was dissolved in corn oil to prepare a corn oil solution of EX527 at a concentration of 2 mg/mL, and the dosage of EX527 for intraperitoneal administration was 10 mg/kg. d.
as §1, with “simultaneously administered” for “simultaneously administrated”, “for 4” for “for 5”
On the 4th day, the establishment of TAA model was performed. 1 Hour after administration, the mice in the model group, the treatment group and the EX527 group were intraperitoneally injected with TAA at a dosage of 300 mg/kg to induce cholestatic liver injury. 24 Hours after administration with TAA, the mice were sacrificed by CO2 anesthesia, and plasma samples and liver samples were collected. The eyeballs of the mice were taken for blood collection. The plasma samples were placed on ice for 1-2 hours, centrifuged at 4000 g for 5 minutes at 4° C., and the supernatants of plasma samples were taken to determine the plasma biochemical indicators, the levels of ALT, AST, and ALP.
At the same time, plasma samples were prepared: 10 μL of plasma sample was mixed with 190 μL of 67% acetonitrile (containing 5 μM internal standard chlorpropamide), centrifuged at 18000 g for 20 minutes at 4° C., and the supernatant was taken for sample injection. The liquid chromatography conditions were as follows: the volume of injection was 5 μL; the temperature of column was 45° C.; the flow rate of mobile phase was 0.3 mL/min; the gradient elution was that acetonitrile concentration changed from 2% to 98% during 16 minutes of operation, wherein the mobile phase (water/acetonitrile solution) contained 0.01% formic acid. The elution procedure was as follows: during 0-12th minute, the acetonitrile concentration changed from 2% to 98% at a constant rate; during 12-14th minute, the acetonitrile concentration was maintained at 98%; during 14-14.1th minute, the acetonitrile concentration changed from 98% to 2%; during 14.1-16th minute, the acetonitrile concentration was maintained at 2%. Mass spectrometry conditions were as follows: the temperature of dry gas was 350° C., the pressure of nebulizer was 35 psi, and the voltage of capillary was 3.5 kV.
Part of the collected mouse liver tissue was fixed overnight in formalin, and tissue sections were stained with hematoxylin and eosin (H&E).

[3] = treatment group: celastrol 10 mg/kg·d, P<0.05, FIG. 3E
[4] = treatment group: celastrol 10 mg/kg·d, TAA model, P<0.05, FIG. 4E

## CC1=C(O)C(=O)C=C2C1=CC=C1[C@@]2(C)CC[C@@]2(C)[C@@H]3C[C@](C)(C(=O)O)CC[C@]3(C)CC[C@]12C [celastrol, Celastrol]
[1]; CA, DCA, TβMCA/TαMCA, TCA, THDCA/TUDCA, treatment group: celastrol 10 mg/kg·d, FIG. 3F
  Levels of bile acids in plasma vs model group: significantly lower
[1]; treatment group: celastrol 10 mg/kg·d intragastric + corn oil, FIG. 3C
  H&E staining of mouse liver tissue: no obvious damage
[1]; [3]
  ALP level in plasma vs model group: lower
  ALT level in plasma vs model group: lower
  AST level in plasma vs model group: lower
[2]; treatment group: celastrol 10 mg/kg·d intragastric + corn oil, TAA model, FIG. 4C
  H&E staining: area of necrosis of liver cells: significantly reduced
[2]; [4]
  ALT level in plasma vs model group: lower
  AST level in plasma vs model group: lower
[2]; ω-MCA, DCA, TβMCA/TαMCA, TCA, THDCA/TUDCA, TCDCA, TDCA, treatment group: celastrol 10 mg/kg·d, P<0.05, FIG. 4F
  Levels of bile acids in plasma vs TAA model group: significantly lower
